Here are results for 43 compounds from patent publication US11267811B2, “Small molecule inhibitors of galectin-3” (BRISTOL-MYERS SQUIBB COMPANY, priority 2017, dated 2022).

This assay concerns the target His-tagged recombinant human Gal-3 (hGal-3) (Homo sapiens (Human), UniProt P17931). The assay can be described thus: Gal-3 HTRF assay (His-tagged hGal-3 binding to B-ASF).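 Note: compounds preincubated 30 min with hGal-3, then 1 h with B-ASF, detection via terbium anti-His antibody and streptavidin d2. Control with B-ASF counts as full signal, omitting B-ASF as background.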 A general note: TR-FRET usually uses a lanthanide donor and a delayed reading to cut background.
Setting [1] is: HTRF, hGal-3 15 nM, B-ASF 15 nM, read-out: hGal-3 IC50.

Like-named read-outs stand apart in the source and are kept apart here.

Chain of His-tagged recombinant human Gal-3 (hGal-3) (P17931 whole entry): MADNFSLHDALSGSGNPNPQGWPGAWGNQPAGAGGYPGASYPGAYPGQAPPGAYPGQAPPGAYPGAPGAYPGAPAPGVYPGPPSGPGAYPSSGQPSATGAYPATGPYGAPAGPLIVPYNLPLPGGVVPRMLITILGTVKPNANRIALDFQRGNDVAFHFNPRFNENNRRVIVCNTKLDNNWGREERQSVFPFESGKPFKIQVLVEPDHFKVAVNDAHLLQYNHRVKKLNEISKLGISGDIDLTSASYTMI

For the compound `Cc1nc([C@@H]2O[C@H](CO)[C@H](O)[C@H](n3cc(-c4cc(F)c(Cl)c(F)c4)nn3)[C@H]2O)n(-c2cc(Cl)c(F)cc2Cl)n1` [Example A46], the 50% inhibitory concentration (IC50) (in general, the concentration at which inhibition is half-maximal) (read-out: hGal IC50) amounted to 33 nM.
On to `Cc1nc([C@@H]2O[C@H](CO)[C@H](O)[C@H](n3cc(-c4cc(F)c(F)c(F)c4)nn3)[C@H]2O)n(-c2ccc3ncn(C)c3c2)n1` [Example 59], for which the IC50 under setting [1] was determined as 140 nM.
Take `CO[C@@H]1[C@@H](n2cc(-c3cc(F)c(F)c(F)c3)nn2)[C@@H](O)[C@@H](CO)O[C@H]1c1nncn1-c1ccc(Cl)c(Cl)c1` [Ex 283]: the IC50 (read-out: hGal3 IC50) was 80 nM.
On to `Cc1nc2cc(-n3cnnc3[C@@H]3O[C@H](CO)[C@H](O)[C@H](n4cc(-c5cc(F)c(F)c(F)c5)nn4)[C@H]3O)ccc2s1` [Example 143], for which the IC50 under setting [1] came out at 410 nM.
Still for that read-out and setting: the result for `OC[C@H]1O[C@@H](c2ncnn2-c2ccncc2)[C@H](O)[C@@H](n2cc(-c3cc(F)c(F)c(F)c3)nn2)[C@H]1O` [Example 42] reads 460 nM.
For the compound `Cc1nc([C@@H]2O[C@H](CO)[C@H](O)[C@H](n3cc(-c4ccc(Br)c(F)c4)nn3)[C@H]2O)n(-c2cc(Cl)ccc2C(F)F)n1` [Example A61], under “read-out: hGal IC50”, the IC50 was found to be 49 nM.
Regarding `OC[C@H]1O[C@@H](c2nncn2-c2ccc(-n3ccnc3)cc2)[C@H](O)[C@@H](n2cc(-c3cc(F)c(F)c(F)c3)nn2)[C@H]1O` [Example 117], the IC50 under setting [1] is 1460 nM.
On to `OC[C@H]1O[C@@H](c2nncn2-c2cccc(-c3nnn[nH]3)c2)[C@H](O)[C@@H](n2cc(-c3cc(F)c(F)c(F)c3)nn2)[C@H]1O` [Example 112], for which the IC50 under setting [1] is 640 nM.
On to `Cc1nc2ccc(-n3ncnc3[C@@H]3O[C@H](CO)[C@H](O)[C@H](n4cc(-c5ccc(Cl)cc5)nn4)[C@H]3O)cc2s1` [Example 237], for which the IC50 (read-out: hGal3 IC50) was 210 nM.
Turning to `Cc1nc([C@@H]2O[C@H](CO)[C@H](O)[C@H](n3cc(-c4ccc5scnc5c4)nn3)[C@H]2O)n(-c2cc(Cl)ccc2C(F)(F)F)n1` [Example A65], for the setting “read-out: hGal IC50”, the IC50 is 87 nM.
With `Cc1nc2ccc(-n3ncnc3[C@@H]3O[C@H](CO)[C@H](O)[C@H](n4cc(-c5ccc(N(C)C)c(F)c5)nn4)[C@H]3O)cc2s1` [Example 206], for the setting “read-out: hGal3 IC50”, the IC50 was found to be 1540 nM.
In the case of `Cc1ccc(-n2cnnc2[C@@H]2O[C@H](CO)[C@H](O)[C@H](n3cc(-c4cc(F)c(F)c(F)c4)nn3)[C@H]2O)cc1C` [Example 77], under setting [1], the IC50 was 140 nM.
Take `Cc1nc([C@@H]2O[C@H](CO)[C@H](O)[C@H](n3cc(-c4cc(F)c(F)c(F)c4)nn3)[C@H]2O)n(-c2ccc(Cl)cc2C)n1` [Example 63]: the IC50 under setting [1] amounted to 850 nM.
With `Cn1c(=O)sc2cc(-n3cnnc3[C@@H]3O[C@H](CO)[C@H](O)[C@H](n4cc(-c5cc(F)c(F)c(F)c5)nn4)[C@H]3O)ccc21` [Example 136], under setting [1], the IC50 was found to be 310 nM.
The same measure, in the same setting: with `CCc1ccc(Cl)cc1-n1nc(C)nc1[C@@H]1O[C@H](CO)[C@H](O)[C@H](n2cc(-c3cc(F)c(F)c(F)c3)nn2)[C@H]1O` [Example 72] the figure was 20 nM.
Regarding `Cc1nc([C@@H]2O[C@H](CO)[C@H](O)[C@H](n3cc(-c4cc(F)c(Cl)c(Cl)c4)nn3)[C@H]2O)n(-c2ccc3ncsc3c2)n1` [Example A24], the IC50 (read-out: hGal IC50) was 34 nM.
Still for that read-out and setting: the result for `Cc1nc([C@@H]2O[C@H](CO)[C@H](O)[C@H](n3cc(-c4ccc(Cl)c(F)c4)nn3)[C@H]2O)n(-c2cc(Cl)cc(F)c2Cl)n1` [Example A48] reads 47 nM.
On to `OC[C@H]1O[C@@H](c2nncn2-c2cc(Cl)ccc2Cl)[C@H](O)[C@@H](n2cc(-c3cc(F)c(F)c(F)c3)nn2)[C@H]1O` [Example 135], for which the IC50 under setting [1] was determined as 30 nM.
As to `Cc1nc2ccc(-n3cnnc3[C@@H]3O[C@H](CO)[C@H](O)[C@H](n4cc(-c5cc(F)c(F)c(F)c5)nn4)[C@H]3O)cc2s1` [Example 132], the IC50 under setting [1] amounted to 20 nM.
Regarding `Cc1nc2ccc(-n3ncnc3[C@@H]3O[C@H](CO)[C@H](O)[C@H](n4cc(-c5cc(F)c(Br)c(F)c5)nn4)[C@H]3O)cc2s1` [Example 226], the IC50 (read-out: hGal3 IC50) amounted to 70 nM.
For `Cc1nc2ccc(-n3ncnc3[C@H]3C[C@@H](n4cc(-c5cc(F)c(F)c(F)c5)nn4)[C@@H](O)[C@@H](CO)O3)cc2s1` [Example 176], under setting [1], the IC50 is 40 nM.
`Cc1cccc(-n2cnnc2[C@@H]2O[C@H](CO)[C@H](O)[C@H](n3cc(-c4cc(F)c(F)c(F)c4)nn3)[C@H]2O)c1` [Example 155]: under setting [1], the IC50 is 150 nM.
For the compound `COc1cccc(-n2cnnc2[C@@H]2O[C@H](CO)[C@H](O)[C@H](n3cc(-c4cc(F)c(F)c(F)c4)nn3)[C@H]2O)c1` [Example 152], under setting [1], the IC50 came to 160 nM.
For `CO[C@@H]1[C@@H](n2cc(-c3cc(F)c(F)c(F)c3)nn2)[C@@H](O)[C@@H](CO)O[C@H]1c1ncnn1-c1ccc(Cl)c(Cl)c1` [Example 190], the IC50 under setting [1] came to 180 nM.
Take `Cc1nc([C@@H]2O[C@H](CO)[C@H](O)[C@H](n3cc(-c4cc(F)c(Br)c(F)c4)nn3)[C@H]2O)n(-c2cc(Cl)ccc2C2CC2)n1` [Example A35]: the IC50 (read-out: hGal IC50) worked out at 151 nM.
In the case of `Cc1nc2ccc(-n3c([C@@H]4O[C@H](CO)[C@H](O)[C@H](n5cc(-c6ccc(Br)c(F)c6)nn5)[C@H]4O)nnc3C(F)(F)F)cc2s1` [Example 315], for the setting “read-out: hGal3 IC50”, the IC50 stood at 980 nM.
For `Cc1nc2cc(Cl)c(-n3ncnc3[C@H]3C[C@@H](n4cc(-c5cc(F)c(F)c(F)c5)nn4)[C@@H](O)[C@@H](CO)O3)cc2s1` [Example 182], the IC50 under setting [1] was 120 nM.
On the same count and under the same terms, with `Cc1nc2ccc(-n3ncnc3[C@@H]3O[C@H](CO)[C@H](O)[C@H](n4cc(-c5cc(F)c(N6CCOCC6)c(F)c5)nn4)[C@H]3O)cc2s1` [Example 243] the figure was 80 nM.
Take `Cc1nc2ccc(-n3ncnc3[C@@H]3O[C@H](CO)[C@H](O)[C@H](n4cc(-c5ccc(N)c(F)c5)nn4)[C@H]3O)cc2s1` [Example 202]: the IC50 (read-out: hGal3 IC50) stood at 440 nM.
For the compound `Cc1nc2c(Cl)cc(-n3cnnc3[C@@H]3O[C@H](CO)[C@H](O)[C@H](n4cc(-c5cc(F)c(F)c(F)c5)nn4)[C@H]3O)cc2s1` [Example 148], the IC50 under setting [1] was determined as 80 nM.
As for `Cc1nc2ccc(-n3nc(C(=O)O)nc3[C@H]3C[C@@H](n4cc(-c5cccc(F)c5)nn4)[C@@H](O)[C@@H](CO)O3)cc2s1` [Example 269, 5-((2R,4R,5R,6R)-4-(4-(3-fluorophenyl)-1H-1,2,3-triazol-1-yl)-5-hydroxy-6-(hydroxymethyl)tetrahydro-2H-pyran-2-yl)-1-(2-methylbenzo[d]thiazol-6-yl)-1H-1,2,4-triazole-3-carboxylic acid], the IC50 under setting [1] turned out to be 330 nM.
In the case of `CC(=O)Nc1ccc(-c2cn([C@H]3[C@@H](O)[C@@H](CO)O[C@@H](c4ncnn4-c4ccc5nc(C)sc5c4)[C@@H]3O)nn2)cc1F` [Example 204], the IC50 (read-out: hGal3 IC50) came out at 5000 nM.
With `Cc1nc([C@@H]2O[C@H](CO)[C@H](O)[C@H](n3cc(-c4cc(F)c(Cl)c(F)c4)nn3)[C@H]2O)n(-c2cc(Cl)ccc2C2CC2)n1` [Example A34], where the note is “read-out: hGal IC50”, the half-maximal inhibitory concentration (IC50) was found to be 46 nM.
Consider `Cc1nc([C@@H]2O[C@H](CO)[C@H](O)[C@H](n3cc(-c4ccc(Cl)c(F)c4)nn3)[C@H]2O)n(-c2cccc(Cl)c2)n1` [Example 244, (2S,3R,4R,5R,6R)-4-(4-(4-chloro-3-fluorophenyl)-1H-1,2,3-triazol-1-yl)-2-(1-(3-chlorophenyl)-3-methyl-1H-1,2,4-triazol-5-yl)-6-(hydroxymethyl)tetrahydro-2H-pyran-3,5-diol], for which the IC50 under setting [1] was found to be 80 nM.
On to `Cc1nc([C@@H]2O[C@H](CO)[C@H](O)[C@H](n3cc(-c4cc(F)c(F)c(F)c4)nn3)[C@H]2O)n(-c2cc(Cl)c(Cl)cc2C)n1` [Example 69], for which the 50% inhibitory concentration (IC50) under setting [1] is 60 nM.
As to `CCc1nc([C@@H]2O[C@H](CO)[C@H](O)[C@H](n3cc(-c4cc(F)c(F)c(F)c4)nn3)[C@H]2O)n(-c2ccc3nc(C)sc3c2)n1` [Example 267], the IC50 under setting [1] amounted to 60 nM.
Regarding `Cc1nc2ccc(-n3c([C@@H]4O[C@H](CO)[C@H](O)[C@H](n5cc(-c6cc(F)c(Br)c(F)c6)nn5)[C@H]4O)nnc3C(F)(F)F)cc2s1` [Example 314], for the setting “read-out: hGal3 IC50”, the IC50 was 57 nM.
On to `OC[C@H]1O[C@@H](n2nncc2-c2ccccc2)C[C@@H](n2cc(-c3cc(F)c(F)c(F)c3)nn2)[C@H]1O` [Example 17], for which the IC50 under setting [1] was 902 nM.
As for `OC[C@H]1O[C@@H](c2nncn2-c2ccc(N3CCNCC3)c(Cl)c2)[C@H](O)[C@@H](n2cc(-c3cc(F)c(F)c(F)c3)nn2)[C@H]1O` [Example 141, (2S,3R,4R,5R,6R)-2-(4-(3-chloro-4-(piperazin-1-yl)phenyl)-4H-1,2,4-triazol-3-yl)-6-(hydroxymethyl)-4-(4-(3,4,5-trifluorophenyl)-1H-1,2,3-triazol-1-yl)tetrahydro-2H-pyran-3,5-diol], under setting [1], the IC50 was found to be 130 nM.
The same measure, in the same setting: with `CS(=O)(=O)Nc1cccc(-n2cnnc2[C@@H]2O[C@H](CO)[C@H](O)[C@H](n3cc(-c4cc(F)c(F)c(F)c4)nn3)[C@H]2O)c1` [Example 113] the figure was 480 nM; with `OCCn1cnnc1[C@@H]1O[C@H](CO)[C@H](O)[C@H](n2cc(-c3cc(F)c(F)c(F)c3)nn2)[C@H]1O` [Example 170, (2S,3R,4R,5R,6R)-2-(4-(2-hydroxyethyl)-4H-1,2,4-triazol-3-yl)-6-(hydroxymethyl)-4-(4-(3,4,5-trifluorophenyl)-1H-1,2,3-triazol-1-yl)tetrahydro-2H-pyran-3,5-diol], 2000 nM.
As for `OC[C@H]1O[C@@H](c2nncn2-c2cc(Cl)cc3cccnc23)[C@H](OCC(F)F)[C@@H](n2cc(-c3ccc(Br)c(F)c3)nn2)[C@H]1O` [Example 323, (2R,3R,4S,5R,6S)-4-(4-(4-bromo-3-fluorophenyl)-1H-1,2,3-triazol-1-yl)-6-(4-(6-chloroquinolin-8-yl)-4H-1,2,4-triazol-3-yl)-5-(2,2-difluoroethoxy)-2-(hydroxymethyl)tetrahydro-2H-pyran-3-ol], the IC50 under setting [1] worked out at 130 nM.
As for `Cc1nc([C@@H]2O[C@H](CO)[C@H](O)[C@H](n3cc(-c4ccc(Cl)c(F)c4)nn3)[C@H]2O)n(-c2cc(Cl)ccc2F)n1` [Example 249], for the setting “read-out: hGal3 IC50”, the IC50 was determined as 90 nM.
